The values below come from ChEMBL document CHEMBL1157539, “Thousands of chemical starting points for antimalarial lead identification” (Nature, 2010).

This assay has as its system Plasmodium falciparum. As to the kind of experiment: GSK_TCMDC: Inhibition of Plasmodium falciparum 3D7 in whole erythrocytes, using parasite LDH activity as an index of growth. Format: functional, organism-based. The settings on record: Plasmodium falciparum, 3D7.

`CNC(=O)c1ccc2[nH]cc(C3CCN(CC4CCN(C(=O)/C=C/c5ccc(Cl)c(Cl)c5)CC4)CC3)c2c1` came in with an XC50 of 1520 nM.

`CS(=O)(=O)N(c1ccc(F)cc1)c1cc(C(=O)N[C@@H](Cc2ccccc2)[C@H](O)CNCc2cccc(C(F)(F)F)c2)cc(N2CCCC2=O)c1` returned an XC50 of 1350 nM.

In turn, `O=C(Nc1cccc(OC2CCN(Cc3ccccc3)CC2)c1)c1ccc(Cl)c(Cl)c1` yielded an XC50 of 716 nM.

The molecule `CCCNC(=O)c1cncc(-c2ccc(CNC3Cc4ccccc4C3)cc2)c1` returned an XC50 of 848 nM.

`CCCN(CCC)CCCN(CCCN(CCC)CCC)c1cc(C)nc(Nc2ccc(Cl)cc2)n1` displayed an XC50 of 168 nM.

For the molecule `CCc1c[nH]c2c(N3CCCC3=O)cc(C(=O)N[C@@H](Cc3ccccc3)[C@H](O)CNC(C)(C)c3cccc(C(F)(F)F)c3)cc12`, the XC50 stood at 115 nM.

For `CCCN(CCC)CCOC(=O)C(OCC)(c1ccccc1)c1ccccc1`, the XC50 stood at 871 nM.

`Cc1cc(NCCCCCCNc2cc(C)nc3c(C)cccc23)c2cccc(C)c2n1` showed an XC50 of 406 nM.

`COc1ccc(CNc2nccc3ccc(-c4ccc(N)nc4)cc23)cc1`: the XC50 turned out to be 979 nM.

In turn, `COc1cc(NC(=O)/C=C/c2cc(F)cc(F)c2F)cc(OCCN2CCCCC2)c1` gave an XC50 of 153 nM.

Turning to `COc1cc(NC(=O)c2sc(-c3ccc(Cl)cc3)cc2Cl)ccc1OCCN1CCCC1`, the XC50 was 976 nM.

As for `Cc1cccc(Nc2nc(N[C@@H]3CCCNC3)nc3cc[nH]c(=O)c23)c1`, the XC50 worked out at 683 nM.

For `Cn1cncc1C(=O)Nc1cccc(-c2ccc(-c3nc4cc(F)ccc4[nH]3)cc2)c1`, the XC50 was found to be 735 nM.

`Cc1noc(C)c1-c1ccc2c(Nc3ccccc3C(C)(C)C)c(C(=O)NCc3ccc(OC(C)C)cc3)cnc2c1` displayed an XC50 of 908 nM.

In the case of `CN(C)c1ccc(C=Cc2nc(=O)c3ccccc3o2)cc1`, the XC50 was 44.6 nM.

`CC(C)c1ccc(NC(=O)c2ccc(C(=O)NC3CCN(Cc4ccccc4)CC3)cc2)cc1` yielded an XC50 of 982 nM.

In turn, `CS(=O)(=O)CCNCc1nc(-c2ccc3c(=O)[nH]cnc3c2)cs1` yielded an XC50 of 1010 nM.

`COc1ccc(C2CCN(CCCCNC(=O)c3ccc(NC(=O)c4ccc(Cl)cc4)cc3)CC2)c(OC)c1` returned an XC50 of 570 nM.

The molecule `CC(C)n1ncc2c(C(=O)N3CCCCCC3)cc(-c3ccccc3)nc21` displayed an XC50 of 789 nM.

On to `N=C(NC1CC1)c1ccc2[nH]c(CCCCCc3nc4cc(C(=N)NC5CC5)ccc4[nH]3)nc2c1`, for which the XC50 came to 934 nM.

Turning to `Cc1cc(N2CCCC2)nc(Nc2ccc(NC(=O)c3ccccc3)cc2)n1`, the XC50 is 977 nM.

Molecule `CN(c1cc(NC(=O)c2ccc(F)cc2)ccn1)C1CCN(Cc2cccc(C#N)c2)CC1` showed an XC50 of 831 nM.

In turn, `CC1(C)N=C(N)N=C(N)N1OCCCCON1C(N)=NC(N)=NC1(C)C` displayed an XC50 of 66 nM.

`O=C(Nc1cccc(-c2cccc(F)c2)c1)C1CCN(Cc2ccc(O)cc2)CC1` showed an XC50 of 1730 nM.

In turn, `FC(F)(F)COc1ccc(CCNCCCCNCCc2ccc(OCC(F)(F)F)c3ccccc23)c2ccccc12` yielded an XC50 of 648 nM.

`O=C(N[C@@H](CC1CCCCC1)C(=O)NCCN1CCCC1)c1ccc(O)c(-c2ccc(Cl)c(Cl)c2)c1`: the XC50 turned out to be 312 nM.

For `CN(C(=O)c1nn(-c2ccccn2)c2nccc(-c3cccs3)c12)C1CCCCC1`, the XC50 stood at 1240 nM.

`COc1ccc(CCCON2C(=N)N=C(N)NC2(C)C)cc1` registered an XC50 of 3.2 nM.

For `CN1CCCN(Cc2ccc(-c3ccc(NC(=O)c4cccc(Cl)c4)cc3)cc2)CC1`, the XC50 was found to be 859 nM.

Regarding `CCCCCCCc1cc(O)c2c3c(c(=O)oc2c1)CN(C)CC3`, the XC50 was found to be 144 nM.

Take `CCOc1ccc2[nH]c(C)cc(=NN=Cc3cccc(F)c3)c2c1`: the XC50 came to 736 nM.

Regarding `Cc1cc(N2CCCC2)nc(Nc2ccc(NC(=O)Nc3ccccc3)cc2)n1`, the XC50 turned out to be 165 nM.

As for `COC(=O)c1ccc(CC(C)NCC(O)c2cccc(C(F)(F)F)c2)c(Cl)c1` (stereo unspecified), the XC50 amounted to 854 nM.

`Cc1nc2nc(N)nc(N)c2c(C)c1Cc1ccc(Cl)cc1`: the XC50 was 216 nM.

With `CCN(CC)CCN(Cc1ccc(-c2ccc(C(F)(F)F)cc2)cc1)C(=O)Cn1c(CCc2cc(F)cc(F)c2)nc(=O)c2ccccc21`, the XC50 was determined as 983 nM.

`CCN(CC)CCNc1cc(C)nc(NC(=N)Nc2ccc(Cl)cc2)n1` registered an XC50 of 130 nM.

With `CC1(C)N=C(N)N=C(N)N1c1cccc(Cl)c1`, the XC50 is 37.9 nM.

As for `Cc1ccc(NC(=O)c2ccc(CN3CCCN(Cc4cccc(O)c4)CC3)cc2)cc1F`, the XC50 was 591 nM.

`Cc1nn(-c2ccccc2)nc1C(=O)N(Cc1ccc(-c2ccc(CNCCc3ccc(S(C)(=O)=O)cc3)cn2)cc1)C(C)CN(C)C` (stereo unspecified) yielded an XC50 of 682 nM.

In turn, `NS(=O)(=O)c1cccc(-c2ccc3c(O)ncnc3c2)c1` had an XC50 of 946 nM.

`CC(=O)Nc1cccc(CNCc2ccc(-c3cnc(N4CCCC(c5ccccc5)C4)nc3)cc2)c1` (stereo unspecified) registered an XC50 of 1190 nM.

Consider `Cc1cccc2nc(-c3ccc(-c4cccc(NC(=O)C(C)CN5CCN(C)CC5)c4)s3)[nH]c12` (stereo unspecified), for which the XC50 was found to be 748 nM.

Consider `CN(CCCCCNC(=O)/C=C/c1ccc(Cl)c(Cl)c1)CCc1c[nH]c2ccccc12`, for which the XC50 was determined as 874 nM.

In the case of `CN1CCN(Cc2cc(NC(=O)c3ccc(-c4ccc(Cl)cc4Cl)cc3)ccc2-c2ccccc2)CC1`, the XC50 worked out at 973 nM.

Molecule `COCCOc1ccc(Nc2nccc(-c3c(-c4cccc(NC(=O)c5c(F)cccc5F)c4)nn4ccccc34)n2)cc1F` displayed an XC50 of 950 nM.

On to `Cc1cc(C(=O)Nc2ccc(-c3nc4ccccc4[nH]3)cc2)ccc1[N+](=O)[O-]`, for which the XC50 was found to be 671 nM.

`Cc1cccc(CNc2nccc3[nH]c4ccccc4c23)c1` yielded an XC50 of 1900 nM.

In the case of `CO[C@H](C)[C@H](NC(=O)[C@H](CC(C)C)[C@H](CCC(F)(F)F)N(O)C=O)C(=O)Nc1nccs1`, the XC50 amounted to 110 nM.

`O=C(NCc1ccccc1)c1ccc(C(=O)NCC2CNCCO2)cc1` (stereo unspecified) came in with an XC50 of 1140 nM.

Turning to `CN(Cc1ccc(C#N)cc1)C1CCN(c2cc(NC(=O)c3ccc(F)cc3)ccn2)CC1`, the XC50 worked out at 1430 nM.

`Cc1ccc(NC(=O)c2cccc(N3CCN(c4ccncc4)CC3)c2)cc1F` displayed an XC50 of 1300 nM.

In turn, `CCCCCCCc1c2c(C)c(C(=O)OCC)nc-2cc2n1CC(C)=C2C` came in with an XC50 of 1140 nM.

The molecule `CCCCCCn1c(Sc2ccc(C#N)c([N+](=O)[O-])c2)nnc1-c1ccccc1` gave an XC50 of 772 nM.

On to `CC(C)C1C(O)=C(c2ccc3ccccc3c2)C(=O)N1CC1CCCCC1` (stereo unspecified), for which the XC50 is 1130 nM.

`O=C(Nc1ccc(C(F)(F)F)cc1)c1ccc(S(=O)(=O)NCC2CCCN(CC3CCCCC3)C2)cc1` (stereo unspecified) yielded an XC50 of 152 nM.

For `O=C(/C=C/c1ccc(Cl)c(Cl)c1)NCCC(CN1CCC(c2c[nH]c3ccccc23)CC1)c1ccccc1` (stereo unspecified), the XC50 is 570 nM.

Turning to `CCOC(=O)C1=C(C)NC2=C(C(=O)CC(C)(C)C2)C1c1ccc(Br)cc1` (stereo unspecified), the XC50 was determined as 1160 nM.

In the case of `Cc1cc(C(=O)CN2C(=O)NC3(CCOc4ccccc43)C2=O)c(C)n1Cc1ccc(F)cc1` (stereo unspecified), the XC50 was determined as 881 nM.

As to `C/C=C1/CN2CC[C@H]1C[C@H]2[C@H](O)c1ccnc2ccc(O)cc12`, the XC50 was determined as 491 nM.

For `COC(=O)c1ccc(-c2ccc(C(=O)NCC3CCN(c4nc(N)c5cc(OC)c(OC)cc5n4)CC3)cc2)cc1`, the XC50 worked out at 185 nM.

Consider `CC(C)(C)c1ccc(C(=O)NC2CCC(CCN3CCc4ccc(S(C)(=O)=O)cc4CC3)CC2)cc1C(F)(F)F` (stereo unspecified), for which the XC50 amounted to 1220 nM.
